Reference: patent US9982242B2, “Protein complex capable of catalyzing asymmetric oxidation reaction and method for producing same” (SANYO FOODS CO., LTD., priority 2012, dated 2018)

These compounds were tested on CLPC. Details: 1 mM.

For `O=C(O)CN(CCN(CC(=O)O)CC(=O)O)CC(=O)O` [EDTA], the “effect of additive on CLPC activity” value was “activity was completely lost”.
For `[Cl-].[Cl-].[Zn+2]` [ZnCl2], the “effect of additive on CLPC activity” value was “inhibitory activity was observed”.

Same assay, conditions: additive 1.0 mM, CLPC 20 mg, rac-2 0.8 mM, […], 48 h

Compared with `[Ca+2].[Cl-].[Cl-]` [CaCl2], `[Cl-].[Cl-].[Zn+2]` [ZnCl2] is lower in “OP/% ee of (S)-2 with additive” value: 97.7 % ee for the first, 1.7 % ee for the second.

First: O=S(=O)([O-])[O-].[Cu+2] [CuSO4]
Second: O=S(=O)([O-])[O-].[Mg+2] [MgSO4]
The “OP/% ee of (S)-2 with additive” value of the first is lower: 86.2 % ee for the first, 91.2 % ee for the second.

Going from `[Cl][Fe]([Cl])[Cl]` [FeCl3] to `[Cl][Mn][Cl]` [MnCl2], the “OP/% ee of (S)-2 with additive” value rises from 79.6 % ee to 80.4 % ee.

Going from `[Cl][Ni][Cl]` [NiCl2] to `c1cnc2c(c1)ccc1cccnc12` [o-phenanthroline], the “OP/% ee of (S)-2 with additive” value falls from 77.7 % ee to 1.4 % ee.
